The test system of data set [1] is S-antigen-induced experimental autoimmune uveitis (EAU) in rats. Put plainly: EAU model in rats, histological ocular evaluation (Example 1). In kind it is in vivo, rat. The conditions noted are these: Day 16; for Histological ocular evaluation of both eyes, mean histologic grade: 10 μl once daily both eyes from Day 7, scale 0-7. The method, then:
A 1% (10 mg/ml) and a 5% (50 mg/ml) solution of laquinimod sodium were prepared in sterile water. Dissolution of laquinimod powder was achieved by shaking, stirring, or low-speed vortex. The solutions were stored for up to 2 weeks at 2-8° C. and up to 24 hours at room temperature. Laquinimod solutions were prepared under light protection and were protected from light for the duration of the experiment. […] One 100 mg/4 ml in olive oil dose was prepared every 2 days and stored at room temperature.
Thirty two female albino Lewis rats were randomly divided into four (4) groups of eight (8) rats. Ocular inflammation was induced at Day 1 by injection of 100 μl of human S-antigen (100 μg) in Freud's complete adjuvant (4 mg/ml) into the footpad of each rat, and an intraperitoneal injection of 1 μg/100 μl pertussis toxin.
Beginning on Day 7 until the end of the study, each animal group was treated with a test solution in both eyes as shown in Table 1:
Immediately after euthanasia (i.e., at Day 16), both eyeballs of all rats of each group were enucleated and prepared for histological examination. They were fixed in Bouin-Hollande solution, dehydrated, and embedded in paraffin wax. They were then cut into eight sections, approximate five to seven micrometers thick and stained with Trichome of Masson.

In data set [2] the test system is S-antigen-induced uveitis in albino rats. Kind of data set: Ocular vs oral laquinimod in S-antigen-induced uveitis in albino rats, clinical score (Example 10). In kind it is in vivo, rat. The settings on record: once daily, 7 days.
A short description of data set [3]: Animal body weight and adverse clinical effects, ovalbumin study (Example 2). Format: in vivo. The settings on record: laquinimod-treated mice, multiple topical administrations. From the text:
This weight loss is commonly observed during chronic corticosteroid treatments.

Data set [4] has as its system ovalbumin-induced allergic conjunctivitis (late phase reaction) in mice. Kind of data set: Ocular active anaphylaxis (late phase) in mice, ovalbumin model, eosinophil infiltration into conjunctiva (Example 2). In kind it is in vivo. The conditions noted are these: for Eosinophil density, mean / Inhibition of Eosinophil Infiltration vs. Vehicle: 10 μl topical right eye four times daily Day 8-17, five times Day 18; for Eosinophil density, mean: conjunctiva Day 19. The method, then: Laquinimod solutions were prepared as in Example 1.
Forty (40) Balb/c albino mice were randomly allocated to five groups of eight animals each. Only the right eyes of each animal were used in this study.
On Days 1 and 8, animals in groups 2-5 were injected once intraperitoneally with 0.2 ml of a mixture comprising 5 μg/ml ovalbumin and 15 mg/ml alum in phosphate buffered saline (PBS; pH 7.3-7.4). Animals of group 1 received a mock sensitization comprising 0.2 ml intraperitoneal injection of PBS only on Days 1 and 8.
Laquinimod or controls were delivered into the right conjunctival sac as follows: • From Day 8 to Day 17, animals were dosed four times daily with 10 μl of either 1% laquinimod, 5% laquinimod, or vehicle. Reference Group 5 was dosed with the same regimen, but starting on Day 15. (**Note: Due to a technical error, four mice from Group 1 (negative vehicle) were not dosed on Day 8 and one mouse from Group 1 (negative vehicle) was not dosed on Day 11. This was deemed not to be a critical error that would affect the outcome of the study so the study was continued). • On Day 18, animals were dosed five times during a three hour period before the second challenge (3 h, 2 h, 1 h, 40 min., and 10 min.).
Allergic conjunctivitis was achieved by a single administration on Day 15 (30 minutes before the treatment regimen) and Day 18 (2 hours after 40 minute treatment) with 10 μl of 5 mg/ml ovalbumin in PBS, pH 7.3-7.4 to the right eyes of all […] in groups 2 through 5. Group 1 was mock challenged with 10 μl PBS only.
On Day 19 (12 h to 24 h after challenge), […] were euthanized using an intraperitoneal injection of pentobarbital. Right eyelids and eyeballs were immediately fixed in Bouin-Hollande solution for 24 hours and embedded in paraffin wax. Fixed samples were cut vertically into 5 to 7 micrometer thick sections with a microtome in two different regions—the bulbar conjunctiva and the fornix and palpebral conjunctiva. Three sections per region were selected for analysis based on the quality of the sectioning. The selected sections were stained with May-Grunwald/acid Giemsa.
After staining, digital images using 200× magnifications were taken with a Leica light microscope. Total area of subconjunctival tissue was measured automatically using the Leica Application Suite (LAS) software. Eosinophils were counted throughout the whole conjunctiva in each of the three sections per sample. The density per square millimeter of eosinophils stained with acid Giemsa was calculated for each specimen. The average cell density per eye was calculated from the results of the […] sections.

Regarding `CCN(C(=O)c1c(O)c2c(Cl)cccc2n(C)c1=O)c1ccccc1` [Laquinimod, laquinimod], the “Histological ocular evaluation of both eyes, mean histologic grade” value in data set [1] (1% Laquinimod) amounted to 1.2; in data set [1] (1% Laquinimod, listed as laquinimod), 1.2±2.2; in data set [1] (5% Laquinimod), 0.7; in data set [1] (5% Laquinimod, listed as laquinimod), 0.7±1.9. Moreover, in data set [1] (1% laquinimod once per day), the “eyes showing significant destruction of the retina associated with infiltration of inflammatory cells” value is reported as “four eyes out of sixteen”. The “eyes showing destruction of the retina associated with infiltration of inflammatory cells” value in data set [1] (5% laquinimod once per day) is listed as “two eyes (from two different animals) out of sixteen”. Also, the “% Inhibition of clinical score on Day 16” value in data set [2] (1% PO) is given as 24%; in data set [2] (1% eye drops), −75%; in data set [2] (5% PO), 39%; in data set [2] (5% eye drops) it was 31%. For the same compound, the adverse clinical effect result in data set [3] was “No adverse clinical effect was observed”. The “Eosinophil density, mean” value in data set [4] (1% Laquinimod) is listed as 117.5 cells/mm2; in data set [4] (5% Laquinimod), 72.5 cells/mm2. The “Inhibition of Eosinophil Infiltration vs. Vehicle” value in data set [4] (1% Laquinimod, not statistically significant) turned out to be 48%; in data set [4] (1% Laquinimod, not statistically significant, listed as laquinimod) it was 48%; in data set [4] (5% Laquinimod, p 0.0023) it was 68%; in data set [4] (5% Laquinimod, p 0.0023, listed as laquinimod), 68%. In addition, the “late ocular anaphylaxis reaction” value in data set [4] (multiple topical administrations, statistically significant effect at a dose of 5%) is on record as “inhibited the late ocular anaphylaxis reaction”.

(Values after US11654140B2, “Treatment of ocular inflammatory diseases using laquinimod” (Active Biotech AB, priority 2012, dated 2023).)
